Counter-ions that a name gives are not always drawn. Like-named read-outs stand apart in the source and are kept apart here.
Type: in vivo
Conditions: 5 mg/kg on the basis of DOPA, into the femoral vein, SD rats
Procedure: The distribution and residence in brain of the compounds according to the present invention were evaluated as follows.
Blood samples were taken out from abdominal aorta after a certain period of […]. Immediately after the exsanguination, whole brain was removed. Experiments were carried out with 3 rats at each blood sampling point.
The DOPA concentration in the whole brain was determined in accordance with the method "New Biochemical Experiment Course, Vol. 11, Neurobiochemistry,p. 289-290 (edited by Biochemical Society, Japan, published by Tokyo Kagaku-Dojin, 1990)." As the controls, the Boc-eliminated Compound D and DOPA were administered in the same manner as above to determine the DOPA concentration.

Structure (SMILES) | Area under the curve of concentration (AUC) of DOPA in brain (Time 0-4 hr) | Area under the curve of concentration (AUC) of DOPA in brain (Time 0-2 hr)
CC(=C(CCOC(=O)[C@@H](N)Cc1ccc(OC(=O)C(C)(C)C)c(OC(=O)C(C)(C)C)c1)SSC(C)C)N(C)C=O [3 (b)] | 82476 ng·min/g | 
C/C(=C(\CCOC(=O)C(N)Cc1ccc(OC(=O)C(C)(C)C)c(OC(=O)C(C)(C)C)c1)SSCC1CCCO1)N(C=O)Cc1cnc(C)nc1N (stereo not drawn) [29 (b), N-[(4-amino-2-methyl-5-pyrimidyl)methyl]-N-[4-[2-amino-3-(3,4-dipivaloyloxyphenyl)propionyl]oxy-1-methyl-2-[(tetrahydrofurfuryl)dithio]-1-butenyl]formamide] | 7151 ng·min/g | 6659 ng·min/g
C=CCSS/C(CCOC(=O)C(N)Cc1ccc(OC(=O)C(C)(C)C)c(OC(=O)C(C)(C)C)c1)=C(/C)N(C=O)Cc1cnc(C)nc1N (stereo not drawn) [35 (b), N-[(4-amino-2-methyl-5-pyrimidyl)methyl]-N-[4-[2-amino-3-(3,4-dipivaloyloxyphenyl)propionyl]oxy-1-methyl-2-[(2-propenyl)dithio]-1-butenyl]formamide] | 10626 ng·min/g | 

Results, then the compound that gave them:

Area under the curve of concentration (AUC) of DOPA in brain (Time 0-4 hr) | Area under the curve of concentration (AUC) of DOPA in brain (Time 0-2 hr) | Structure (SMILES)
3277 ng·min/g | 3169 ng·min/g | CC(C)(C)C(=O)Oc1ccc(C[C@H](N)C(=O)O)cc1OC(=O)C(C)(C)C [Boc-elimination of Compound D, reference compound]
6035 ng·min/g | 6035 ng·min/g | N[C@@H](Cc1ccc(O)c(O)c1)C(=O)O [DOPA, 3,4-dihydroxy phenylalanine, reference compound]
 | 34595 ng·min/g | C/C(=C(\CCOC(=O)C(N)Cc1ccc(OC(=O)C(C)(C)C)c(OC(=O)C(C)(C)C)c1)SSC(C)C)N(C=O)Cc1cnc(C)nc1N (stereo not drawn) [Example 30 (b), N-[(4-amino-2-methyl-5-pyrimidyl)methyl]-N-[4-[2-amino-3-(3,4-dipivaloyloxyphenyl)propionyl]oxy-1-methyl-2-[(2-propyl)dithio]-1-butenyl]formamide hydrochloride]
